Source: US8415469B2, “Compounds and methods for kinase modulation, and indications therefor” (Plexxikon Inc., priority 2005, dated 2013)

Legend:
Format in all cases: biochemical
Fak = biological target: T1, Fak (Homo sapiens, UniProt Q05397); experiment: AlphaScreen kinase assay, Fak; conditions: read-out: IC50, activity toward kinase Fak
T1 construct: P1358.pFastBacHtb FAK S411-Q686-X; His6 with pFastBacHTb leader (TEV site) (N); made in house; host or cells: Sf9 (baculovirus)

Jnk3 = biological target: T2, Jnk3 (Homo sapiens, UniProt P53779); experiment: AlphaScreen kinase assay, Jnk3; conditions: read-out: IC50, activity toward kinase Jnk3
T2 construct: purchased Upstate Biotechnology

Jnk1 = biological target: T3, Jnk1 (Homo sapiens, UniProt P45983); experiment: AlphaScreen kinase assay, Jnk1; conditions: read-out: IC50, activity toward kinase Jnk1
T3 construct: purchased Upstate Biotechnology

Src = biological target: T4, Src (Homo sapiens, UniProt P12931); experiment: AlphaScreen kinase assay, Src; conditions: read-out: IC50, activity toward kinase Src
T4 construct: P1144. pET-N6 BI-PTP SRC V86-L536-X; made in house

Met = biological target: T5, Met (Homo sapiens, UniProt P08581); experiment: AlphaScreen kinase assay, Met; conditions: read-out: IC50, activity toward kinase Met
T5 construct: P1818.pETN6 BI-PTP MET G1056-G1364-X WT; His6 (N); made in house; host or cells: E. coli (PTP1B co-expressed)
How it was run: (§1)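 Emission from acceptor beads reports phosphorylated biotin-peptide bridging antibody-coated acceptor and streptavidin donor beads; loss of signal reflects kinase inhibition. Eight-point, threefold dilution series prepared from 20 mM DMSO stocks.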

PKC theta = biological target: T6, PKC theta (Homo sapiens, UniProt Q04759); experiment: Z'-Lyte FRET kinase assay (Invitrogen), PKC theta; conditions: read-out: IC50, activity toward kinase PKC theta
T6 construct: purchased Invitrogen (Carlsbad, Calif.), screening service
How it was run: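 Under a compound concentration curve, the kinase acted on a dual-labelled peptide at 2 μM with ATP at 10 μM for one hour at ambient temperature (buffer pH 7.5, 1% DMSO). Phosphorylation extent came from the emission ratio after protease development.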

Stk6 = biological target: T7, Stk6 (Homo sapiens, UniProt O14965); experiment: Z'-Lyte FRET kinase assay (Invitrogen), Stk6; conditions: read-out: IC50, activity toward kinase Stk6
T7 construct: purchased Invitrogen (Carlsbad, Calif.), screening service
T7 sequence (O14965 1-403): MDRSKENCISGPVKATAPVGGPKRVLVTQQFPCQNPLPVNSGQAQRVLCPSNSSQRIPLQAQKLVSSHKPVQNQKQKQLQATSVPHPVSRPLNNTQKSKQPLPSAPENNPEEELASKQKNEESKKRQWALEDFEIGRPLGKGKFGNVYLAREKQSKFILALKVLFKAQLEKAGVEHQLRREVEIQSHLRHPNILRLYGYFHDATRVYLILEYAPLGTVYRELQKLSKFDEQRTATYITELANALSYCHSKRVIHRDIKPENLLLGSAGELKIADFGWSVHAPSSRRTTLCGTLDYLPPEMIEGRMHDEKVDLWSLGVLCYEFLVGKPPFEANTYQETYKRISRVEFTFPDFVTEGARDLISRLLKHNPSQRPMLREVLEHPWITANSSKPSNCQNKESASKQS

Abl = biological target: T8, Abl (Homo sapiens, UniProt P00519); experiment: AlphaScreen kinase assay, Abl; conditions: read-out: activity toward kinase Abl, IC50
T8 construct: P1121. pET-SPEC BI-PTP Abl G227-V515-X; His6 (N); made in house; host or cells: E. coli (PTP1B co-expressed)
T8 sequence (P00519 with tags, fused parts or gaps): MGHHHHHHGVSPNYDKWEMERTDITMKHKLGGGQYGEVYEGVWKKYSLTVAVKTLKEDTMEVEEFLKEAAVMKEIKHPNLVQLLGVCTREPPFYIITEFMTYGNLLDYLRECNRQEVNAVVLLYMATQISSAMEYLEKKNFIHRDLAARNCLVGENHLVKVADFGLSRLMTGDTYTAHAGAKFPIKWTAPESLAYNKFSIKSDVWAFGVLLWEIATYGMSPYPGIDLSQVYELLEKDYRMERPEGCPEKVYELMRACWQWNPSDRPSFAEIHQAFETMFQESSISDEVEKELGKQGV
How it was run: as §1

T3 sequence (P45983 whole entry): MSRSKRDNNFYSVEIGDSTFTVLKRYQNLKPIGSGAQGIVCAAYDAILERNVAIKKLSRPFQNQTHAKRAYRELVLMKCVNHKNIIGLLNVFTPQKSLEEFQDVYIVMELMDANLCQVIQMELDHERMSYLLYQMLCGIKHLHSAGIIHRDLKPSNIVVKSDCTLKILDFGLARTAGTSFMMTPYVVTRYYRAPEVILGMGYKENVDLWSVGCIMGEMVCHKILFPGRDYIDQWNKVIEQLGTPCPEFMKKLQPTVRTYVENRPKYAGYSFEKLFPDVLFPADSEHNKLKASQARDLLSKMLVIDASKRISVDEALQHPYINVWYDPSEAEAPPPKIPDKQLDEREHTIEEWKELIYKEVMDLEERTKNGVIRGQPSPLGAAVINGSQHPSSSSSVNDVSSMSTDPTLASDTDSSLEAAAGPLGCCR
T6 sequence (Q04759 whole entry): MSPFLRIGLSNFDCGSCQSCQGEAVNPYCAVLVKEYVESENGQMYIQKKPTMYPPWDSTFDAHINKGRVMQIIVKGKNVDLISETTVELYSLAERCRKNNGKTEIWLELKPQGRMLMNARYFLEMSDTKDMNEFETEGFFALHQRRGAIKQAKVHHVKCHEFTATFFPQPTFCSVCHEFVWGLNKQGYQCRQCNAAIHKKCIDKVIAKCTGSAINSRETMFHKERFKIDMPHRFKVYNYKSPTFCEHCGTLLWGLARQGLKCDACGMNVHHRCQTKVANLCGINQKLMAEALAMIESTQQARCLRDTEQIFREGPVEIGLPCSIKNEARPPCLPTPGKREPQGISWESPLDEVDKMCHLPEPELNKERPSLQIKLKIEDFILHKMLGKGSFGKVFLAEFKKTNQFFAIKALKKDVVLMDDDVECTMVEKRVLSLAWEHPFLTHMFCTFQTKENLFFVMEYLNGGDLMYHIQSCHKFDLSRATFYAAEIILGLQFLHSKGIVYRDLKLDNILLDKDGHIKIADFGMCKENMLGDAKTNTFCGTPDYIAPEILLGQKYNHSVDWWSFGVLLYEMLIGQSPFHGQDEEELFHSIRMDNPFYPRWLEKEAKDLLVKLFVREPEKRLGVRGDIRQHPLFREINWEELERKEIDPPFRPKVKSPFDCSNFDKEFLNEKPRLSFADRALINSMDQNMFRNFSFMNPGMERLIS
T2 sequence (P53779 whole entry): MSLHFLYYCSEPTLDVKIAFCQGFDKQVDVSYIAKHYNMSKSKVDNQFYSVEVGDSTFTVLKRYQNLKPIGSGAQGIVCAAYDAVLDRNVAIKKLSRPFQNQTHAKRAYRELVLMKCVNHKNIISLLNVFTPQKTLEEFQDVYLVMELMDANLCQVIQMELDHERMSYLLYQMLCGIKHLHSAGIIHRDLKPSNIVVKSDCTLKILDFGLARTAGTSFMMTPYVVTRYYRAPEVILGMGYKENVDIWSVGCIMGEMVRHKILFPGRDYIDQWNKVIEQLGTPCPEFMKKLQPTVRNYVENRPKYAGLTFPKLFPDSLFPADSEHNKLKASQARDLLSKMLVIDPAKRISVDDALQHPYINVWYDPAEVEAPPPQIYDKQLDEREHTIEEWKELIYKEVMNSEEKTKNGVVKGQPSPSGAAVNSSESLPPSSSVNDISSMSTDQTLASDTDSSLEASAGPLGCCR
T5 sequence (P08581 with tags, fused parts or gaps): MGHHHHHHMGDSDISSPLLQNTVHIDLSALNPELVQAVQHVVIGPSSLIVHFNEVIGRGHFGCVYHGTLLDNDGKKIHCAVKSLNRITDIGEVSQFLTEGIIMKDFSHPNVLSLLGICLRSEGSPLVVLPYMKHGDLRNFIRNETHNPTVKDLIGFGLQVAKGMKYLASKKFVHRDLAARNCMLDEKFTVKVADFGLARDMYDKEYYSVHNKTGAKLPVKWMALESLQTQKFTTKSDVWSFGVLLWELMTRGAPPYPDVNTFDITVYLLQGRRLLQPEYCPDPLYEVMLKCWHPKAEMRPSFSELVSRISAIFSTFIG
T4 sequence (P12931 with tags, fused parts or gaps): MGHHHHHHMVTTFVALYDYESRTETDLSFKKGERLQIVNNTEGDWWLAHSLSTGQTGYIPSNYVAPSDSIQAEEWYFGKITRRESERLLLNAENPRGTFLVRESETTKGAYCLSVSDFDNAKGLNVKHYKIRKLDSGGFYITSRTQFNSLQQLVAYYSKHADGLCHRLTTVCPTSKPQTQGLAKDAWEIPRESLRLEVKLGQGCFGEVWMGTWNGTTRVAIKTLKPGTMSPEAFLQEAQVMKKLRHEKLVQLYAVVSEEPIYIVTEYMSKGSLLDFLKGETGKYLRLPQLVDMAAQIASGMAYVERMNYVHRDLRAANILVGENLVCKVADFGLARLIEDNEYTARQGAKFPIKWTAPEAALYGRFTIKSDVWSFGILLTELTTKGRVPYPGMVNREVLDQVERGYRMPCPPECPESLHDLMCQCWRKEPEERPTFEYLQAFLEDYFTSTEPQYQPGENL
T1 sequence (Q05397 411-686): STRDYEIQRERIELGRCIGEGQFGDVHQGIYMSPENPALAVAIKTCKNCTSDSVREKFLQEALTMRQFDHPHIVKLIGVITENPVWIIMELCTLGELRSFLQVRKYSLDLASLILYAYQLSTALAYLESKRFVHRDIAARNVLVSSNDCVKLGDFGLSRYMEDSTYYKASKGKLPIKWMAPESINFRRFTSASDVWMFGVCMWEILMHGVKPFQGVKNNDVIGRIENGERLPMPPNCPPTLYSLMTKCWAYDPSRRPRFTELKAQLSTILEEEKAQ

SMILES	IC50 (Fak)	IC50 (Jnk3)	IC50 (Jnk1)	IC50 (Src)	IC50 (Met)	IC50 (PKC theta)	IC50 (Stk6)	IC50 (Abl)
Cc1c(O)cccc1C(=O)c1c[nH]c2ncc(-c3cccnc3)cc12 [Compound P-0006, (3-Hydroxy-2-methyl-phenyl)-(5-pyridin-3-yl-1H-pyrrolo[2,3b]pyridin-3-yl)-methanone]	≤ 10 µM	≤ 10 µM	≤ 10 µM	≤ 10 µM	≤ 10 µM	≤ 10 µM		
CS(=O)(=O)c1cccc(-c2cnc3[nH]cc(C(O)c4c(F)ccc(F)c4F)c3c2)c1 (stereo not drawn) [Compound P-0020]					≤ 10 µM	≤ 10 µM	≤ 10 µM	
O=C(c1cccc(O)c1)c1c[nH]c2ncc(Nc3ccccc3)cc12 [Compound P-0025]	≤ 10 µM	≤ 10 µM	≤ 10 µM	≤ 10 µM		≤ 10 µM		≤ 10 µM
CC(=O)Nc1cccc(-c2cnc3[nH]cc(C(=O)c4cc(O)ccc4F)c3c2)c1 [Compound P-0001]	≤ 10 µM	≤ 10 µM	≤ 10 µM	≤ 10 µM	≤ 10 µM	≤ 10 µM	≤ 10 µM	≤ 10 µM
Nc1cccc(-c2cnc3[nH]cc(C(=O)c4cc(O)ccc4F)c3c2)c1 [Compound P-0002]	≤ 10 µM	≤ 10 µM	≤ 10 µM	≤ 10 µM	≤ 10 µM	≤ 10 µM	≤ 10 µM	≤ 10 µM

The remaining lines, values ahead:

IC50 (Fak)	IC50 (Jnk3)	IC50 (Jnk1)	IC50 (Src)	IC50 (Met)	IC50 (PKC theta)	IC50 (Stk6)	IC50 (Abl)	SMILES
≤ 10 µM	≤ 10 µM	≤ 10 µM	≤ 10 µM	≤ 10 µM	≤ 10 µM			CS(=O)(=O)c1cccc(-c2cnc3[nH]cc(C(=O)c4cccc(O)c4F)c3c2)c1 [Compound P-0026, (2-Fluoro-3-hydroxy-phenyl)-[5-(3-methanesulfonylphenyl)1H-pyrrolo[2,3-b]pyridin-3-yl]-methanone]
≤ 10 µM	≤ 10 µM	≤ 10 µM	≤ 10 µM	≤ 10 µM	≤ 10 µM			Nc1cccc(-c2cnc3[nH]cc(C(=O)c4cccc(O)c4F)c3c2)c1 [Compound P-0004, [5-(3-amino-phenyl)-1H-pyrrolo[2,3-b]pyridin-3-yl]-(2-fluoro-3-hydroxy-phenyl)methanone]
≤ 10 µM	≤ 10 µM	≤ 10 µM	≤ 10 µM	≤ 10 µM	≤ 10 µM	≤ 10 µM		CS(=O)(=O)c1cccc(-c2cnc3[nH]cc(C(=O)c4cc(O)ccc4F)c3c2)c1 [Compound P-0008, (2-Fluoro-5-hydroxy-phenyl)-[5-(3-methanesulfonyl-phenyl)-1H-pyrrolo[2,3-b]pyridin-3-yl]-methanone]
≤ 10 µM	≤ 10 µM	≤ 10 µM	≤ 10 µM		≤ 10 µM	≤ 10 µM	≤ 10 µM	Nc1cccc(-c2cnc3[nH]cc(C(=O)c4cccc(O)c4)c3c2)c1 [Compound P-0003]
